{
  "source": "patent US12281123B2",
  "about": "“Benzoxazinone compounds as KLK5/7 dual inhibitors” (MOLECULAR SKIN THERAPEUTICS, INC., priority 2019, dated 2025)",
  "format_in_all_cases": "biochemical",
  "key": {"Neutrophil Elastase": {"target": "T1, Neutrophil Elastase (Homo sapiens, UniProt P08246)", "T1 sequence (P08246 30-267)": "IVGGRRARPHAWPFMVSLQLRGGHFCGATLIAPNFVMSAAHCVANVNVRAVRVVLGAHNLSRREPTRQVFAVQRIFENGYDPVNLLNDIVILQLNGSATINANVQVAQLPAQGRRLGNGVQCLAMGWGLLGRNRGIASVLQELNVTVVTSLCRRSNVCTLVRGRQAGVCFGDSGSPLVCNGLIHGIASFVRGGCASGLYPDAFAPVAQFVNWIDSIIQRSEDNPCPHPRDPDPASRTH", "assay": "Chromogenic assay, neutrophil elastase", "conditions": "Neutrophil Elastase 0.5 nM; Elastase substrate 1 200 μM; highest conc. of 1.001 100 μM", "from_the_text": "(§1) Human Kallikrein Proteins: Recombinant human KLK5 expressed in HEK293 was obtained from SpeedBio (Gaithersburg, MD). Recombinant proenzyme KLK-7 and recombinant proenzyme KLK-14 both expressed in mouse myeloma cells were from R&D Biosystems (Minneapolis, MN). Plasmin and thrombin were from Haematologic Technologies (Essex Junction, VT). Trypsin and Chymotrypsin were bought from Worthington Biochemical Corporation (Lakewood, NJ) and plasma kallikrein was from Prospec (East Brunswick, NJ). Neutrophil Elastase was obtained from Innovative Research (Peary Court, MI). Bovine recombinant enterokinase expressed in E. coli was bought from Sigma (St. Louis, MI). Matriptase expressed in E. coli was obtained from Enzo Life Sciences (Farmingdale, NY). The control inhibitors Nafamostat mesylate was from Sigma (St. Louis, MI) and (2-(2-fluorophenyl)-5,6,7,8-tetrahydro-4H-benzo[4,5]thieno[2,3-d][1,3]oxazin-4-one was from Interbioscreen (Moskow, Russia). […]\n(§2) Assays: All assays were performed in 384 well polystyrene plates coated overnight with 0.1% Tween 20 at 4° C. […] The assays were monitored at 37° C. in a multi well plate reader at a wavelength of 405 nm (Molecular Devices, San Jose, CA) for 1 h. […]\n(§3) Data analysis: The progress curves of substrate hydrolysis were analyzed by linear regression of the final 20 min of the reaction. […]"}, "KLK14": {"target": "T2, KLK14 (Homo sapiens, UniProt Q9P0G3)", "T2 construct": "purchased R&D Biosystems (Minneapolis, MN) / R&Dsystems; host or cells: mouse myeloma cells", "T2 sequence (Q9P0G3 25-251)": "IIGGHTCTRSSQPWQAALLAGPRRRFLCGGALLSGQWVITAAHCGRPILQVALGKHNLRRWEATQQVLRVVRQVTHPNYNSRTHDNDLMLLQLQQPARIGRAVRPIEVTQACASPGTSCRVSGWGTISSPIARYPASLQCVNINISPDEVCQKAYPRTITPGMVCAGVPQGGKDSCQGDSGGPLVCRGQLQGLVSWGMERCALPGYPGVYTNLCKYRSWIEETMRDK", "assay": "Chromogenic assay, KLK14", "conditions": "S-2288 500 μM, highest conc. of 1.001 50 μM", "from_the_text": "(§4) Human Kallikrein Proteins: Recombinant human KLK5 expressed in HEK293 was obtained from SpeedBio (Gaithersburg, MD). Recombinant proenzyme KLK-7 and recombinant proenzyme KLK-14 both expressed in mouse myeloma cells were from R&D Biosystems (Minneapolis, MN). Plasmin and thrombin were from Haematologic Technologies (Essex Junction, VT). Trypsin and Chymotrypsin were bought from Worthington Biochemical Corporation (Lakewood, NJ) and plasma kallikrein was from Prospec (East Brunswick, NJ). Neutrophil Elastase was obtained from Innovative Research (Peary Court, MI). Bovine recombinant enterokinase expressed in E. coli was bought from Sigma (St. Louis, MI). Matriptase expressed in E. coli was obtained from Enzo Life Sciences (Farmingdale, NY). The control inhibitors Nafamostat mesylate was from Sigma (St. Louis, MI) and (2-(2-fluorophenyl)-5,6,7,8-tetrahydro-4H-benzo[4,5]thieno[2,3-d][1,3]oxazin-4-one was from Interbioscreen (Moskow, Russia).\n(§5) Substrates: S-2288 (D-Ile-Pro-Arg-pNA), CS-PSA (MeO-Suc-Arg-Pro-Tyr-pNA), S-2266 (H-D-Val-Leu-Arg-pNA) and S-2288 (H-D-Ile-Pro-Arg-pNA) were bought from Diapharma (West Chester, OH). MeOSuccAla-Ala-Pro-Val-pNA was purchased from Sigma (St Louis, MI). The substrates were dissolved in water at 10 mM and were frozen in aliquots at −20° C.\nActivation of KLK-7 and KLK-14: 150 μL 8 μM solution of the proenzymes of KLK-7 or KLK-14 in 50 mM Tris, 10 mM CaCl2, 150 mM NaCl, 0.05% (w/v) Brij-35, pH 7.5 were mixed with 150 μL 10 μg/mL bovine enterokinase in the same buffer and incubated for 2 h for KLK-7 and 1 h for KLK-14 at 37° C. After the incubation period, activation was stopped by addition of 6 μL 0.5 M EDTA pH 8.0.\n(§6) Assays: All assays were performed in 384 well polystyrene plates coated overnight with 0.1% Tween 20 at 4° C. The plates were then washed twice with 100 μL water and dried. […] The assays were monitored at 37° C. in a multi well plate reader at a wavelength of 405 nm (Molecular Devices, San Jose, CA) for 1 h. […]\nas §3"}, "Chymotrypsin": {"target": "Chymotrypsin (Bos taurus, UniProt P00766)", "assay": "Chromogenic assay, chymotrypsin", "from_the_text": "as §4, §5\nas §6, with “dried. For the determination of IC50 values, the inhibitors were diluted in serial dilutions of 1:3 intervals into pure DMSO at 50 fold of the intended final concentrations in the assays. Usually eight inhibitor dilutions and one DMSO control were prepared. The substrates were diluted into water at 2.2-fold the final concentration in the assay mixture.” for “dried.”\nas §3"}, "Plasmin": {"target": "T3, Plasmin (Homo sapiens, UniProt P00747)", "T3 construct": "purchased Haematologic Technologies (Essex Junction, VT)", "T3 sequence (P00747 581-810 limits assumed, species assumed)": "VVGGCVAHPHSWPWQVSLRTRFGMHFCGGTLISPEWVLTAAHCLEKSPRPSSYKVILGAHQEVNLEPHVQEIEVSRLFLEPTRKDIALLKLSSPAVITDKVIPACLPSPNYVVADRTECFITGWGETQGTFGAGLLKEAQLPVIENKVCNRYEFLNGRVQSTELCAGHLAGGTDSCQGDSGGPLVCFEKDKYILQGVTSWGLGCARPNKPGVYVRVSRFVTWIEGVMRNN", "T3 sequence (P00747 97-580 partner limits assumed, species assumed)": "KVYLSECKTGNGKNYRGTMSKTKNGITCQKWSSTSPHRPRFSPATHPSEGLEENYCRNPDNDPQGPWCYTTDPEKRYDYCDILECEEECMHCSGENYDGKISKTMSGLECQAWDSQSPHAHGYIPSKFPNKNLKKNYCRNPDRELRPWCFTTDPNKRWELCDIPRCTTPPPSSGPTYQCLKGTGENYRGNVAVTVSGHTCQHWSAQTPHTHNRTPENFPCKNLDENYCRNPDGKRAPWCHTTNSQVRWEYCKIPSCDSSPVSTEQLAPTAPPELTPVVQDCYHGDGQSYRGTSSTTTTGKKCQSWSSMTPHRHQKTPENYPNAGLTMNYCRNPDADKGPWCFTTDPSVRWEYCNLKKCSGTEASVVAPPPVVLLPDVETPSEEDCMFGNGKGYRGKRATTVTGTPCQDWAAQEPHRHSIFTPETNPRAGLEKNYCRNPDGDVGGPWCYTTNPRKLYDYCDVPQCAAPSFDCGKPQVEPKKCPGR", "assay": "Chromogenic assay, plasmin", "conditions": "Plasmin 1.0 nM; S-2288 500 μM; highest conc. of 1.001 50 μM", "from_the_text": "as §1, §2, §3"}, "Trypsin": {"target": "T4, Trypsin (UniProt P00760)", "T4 sequence (P00760 1-246)": "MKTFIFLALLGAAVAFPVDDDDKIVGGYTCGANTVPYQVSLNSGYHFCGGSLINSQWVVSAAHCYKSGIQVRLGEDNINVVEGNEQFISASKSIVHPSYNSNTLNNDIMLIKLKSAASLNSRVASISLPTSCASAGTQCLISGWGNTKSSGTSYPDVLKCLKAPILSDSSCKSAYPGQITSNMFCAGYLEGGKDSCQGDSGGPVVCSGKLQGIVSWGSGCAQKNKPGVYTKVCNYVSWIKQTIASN", "assay": "Chromogenic assay, trypsin", "conditions": "Trypsin 0.1 nM; S-2288 500 μM; highest conc. of 1.001 50 μM", "from_the_text": "as §1, §2, §3"}, "KLK1": {"target": "T5, KLK1 (Homo sapiens, UniProt P06870)", "T5 construct": "purchased Prospec", "T5 sequence (P06870 25-262)": "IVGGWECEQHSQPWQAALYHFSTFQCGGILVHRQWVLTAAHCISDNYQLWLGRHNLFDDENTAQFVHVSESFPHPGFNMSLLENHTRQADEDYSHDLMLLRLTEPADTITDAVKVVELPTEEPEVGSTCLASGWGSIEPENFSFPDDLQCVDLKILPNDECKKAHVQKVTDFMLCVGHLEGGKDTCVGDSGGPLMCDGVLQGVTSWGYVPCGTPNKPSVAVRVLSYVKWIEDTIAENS", "assay": "Chromogenic assay, KLK1", "conditions": "KLK1 10 nM; S-2266 200 μM; highest conc. of 1.001 50 μM", "procedure": "as §5\nAssays: All assays were performed in 384 well polystyrene plates coated overnight with 0.1% Tween 20 at 4° C. The plates were then washed twice with 100 μL water and dried. For the determination of IC50 values, the inhibitors were diluted in serial dilutions of 1:3 intervals into pure DMSO at 50 fold of the intended final concentrations in the assays. Usually eight inhibitor dilutions and one DMSO control were prepared. The substrates were diluted into water at 2.2-fold the final concentration in the assay mixture. The wells of the plate were filled with 50 μL of the enzyme diluted in 2× assay buffer (100 mM Tris, 200 mM NaCl, 0.2% PEG, 0.01% Tween, 2 mM EDTA, pH 8.0) at twofold the intended concentration. Then 5 μL DMSO, 2.2 μL inhibitor and 45 μL substrate were added to start the reaction. The assays were monitored at 37° C. in a multi well plate reader at a wavelength of 405 nm (Molecular Devices, San Jose, CA) for 1 h. […]\nas §3"}, "[1]": {"conditions": "Chymotrypsin 0.2 nM, CS-PSA 500 μM, highest conc. of 1.001 50 μM"}},
  "note": "Where “and” joins values, the source holds several entries; their conditions need not be identical. Equal values may be shown once.",
  "data": [
    {"smiles": "CS(=O)(=O)c1cc(CO)ccc1-c1nc2cc3c(cc2c(=O)o1)OCCO3", "note": "[Compound 1.001, 2-(4-(Hydroxymethyl)-2-(methylsulfonyl)phenyl)-7,8-dihydro-4H-[1,4]dioxino[2′,3′:4,5]benzo[1,2-d][1,3]oxazin-4-one]", "values": [
      {"measurement": "IC50", "setting": "Neutrophil Elastase", "value": "> 50", "unit": "µM"},
      {"measurement": "IC50", "setting": "KLK14; KLK14 1 nM", "value": 0.442, "unit": "µM"},
      {"measurement": "IC50", "setting": "KLK14; KLK14 5 nM", "value": 0.633, "unit": "µM"},
      {"measurement": "IC50", "setting": "Chymotrypsin; [1]", "value": "0.249 µM and 0.317 µM"},
      {"measurement": "Inhibition of Chymotrypsin, conclusion in words", "setting": "Chymotrypsin; conclusion from Table 3", "value": "inhibitor"},
      {"measurement": "IC50", "setting": "Plasmin", "value": "3.36 µM and 4.2 µM"},
      {"measurement": "IC50", "setting": "Trypsin", "value": "1.66 µM and 1.36 µM and 2.2 µM"},
      {"measurement": "IC50 (μM), KLK1", "setting": "KLK1", "value": "No inhibition"}
    ]},
    {"smiles": "CS(=O)(=O)c1cc(CO)ccc1C(=O)Nc1cc2c(cc1C(=O)O)OCCO2", "note": "[Compound 408, reference compound]", "values": [
      {"measurement": "IC50", "setting": "Neutrophil Elastase", "value": "> 500", "unit": "µM"},
      {"measurement": "IC50 (μM), KLK14", "setting": "KLK14; KLK14 5 nM", "value": "No inhibition"},
      {"measurement": "IC50 (μM), Chymotrypsin", "setting": "Chymotrypsin; [1]", "value": "No inhibition"},
      {"measurement": "IC50 (μM), Plasmin", "setting": "Plasmin", "value": "No inhibition"},
      {"measurement": "IC50 (μM), Trypsin", "setting": "Trypsin", "value": "No inhibition"},
      {"measurement": "IC50 (μM), KLK1", "setting": "KLK1", "value": "No inhibition"}
    ]}
  ]
}
